pIC50: −log10 of the molar value.
Tests used:
[1] = target: T1, Amine oxidase [flavin-containing] B (Homo sapiens, UniProt P27338); experiment: Binding affinity to MAOB (unknown origin) using 7-(3-amino-propoxy)-coumarin as substrate after 3 hr by spectrofluorometric analysis
T1 sequence (P27338 whole entry): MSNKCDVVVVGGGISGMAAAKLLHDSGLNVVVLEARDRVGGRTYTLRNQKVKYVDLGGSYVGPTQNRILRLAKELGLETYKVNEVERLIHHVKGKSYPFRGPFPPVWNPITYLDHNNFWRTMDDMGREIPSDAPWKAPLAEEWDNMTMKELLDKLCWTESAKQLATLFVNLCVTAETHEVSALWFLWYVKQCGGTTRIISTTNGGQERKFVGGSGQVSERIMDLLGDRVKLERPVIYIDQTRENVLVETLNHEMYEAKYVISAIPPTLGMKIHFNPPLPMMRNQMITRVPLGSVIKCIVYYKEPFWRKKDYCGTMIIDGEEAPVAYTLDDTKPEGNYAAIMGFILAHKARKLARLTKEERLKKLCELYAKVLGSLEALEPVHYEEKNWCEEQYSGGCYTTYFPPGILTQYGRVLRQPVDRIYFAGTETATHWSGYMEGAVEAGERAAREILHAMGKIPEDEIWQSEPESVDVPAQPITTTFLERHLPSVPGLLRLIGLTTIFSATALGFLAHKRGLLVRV

[2] = target: T2, Amine oxidase [flavin-containing] A (Homo sapiens, UniProt P21397); experiment: Binding affinity to MAOA (unknown origin) using 7-(3-amino-propoxy)-coumarin as substrate after 3 hr by spectrofluorometric analysis
T2 sequence (P21397 whole entry): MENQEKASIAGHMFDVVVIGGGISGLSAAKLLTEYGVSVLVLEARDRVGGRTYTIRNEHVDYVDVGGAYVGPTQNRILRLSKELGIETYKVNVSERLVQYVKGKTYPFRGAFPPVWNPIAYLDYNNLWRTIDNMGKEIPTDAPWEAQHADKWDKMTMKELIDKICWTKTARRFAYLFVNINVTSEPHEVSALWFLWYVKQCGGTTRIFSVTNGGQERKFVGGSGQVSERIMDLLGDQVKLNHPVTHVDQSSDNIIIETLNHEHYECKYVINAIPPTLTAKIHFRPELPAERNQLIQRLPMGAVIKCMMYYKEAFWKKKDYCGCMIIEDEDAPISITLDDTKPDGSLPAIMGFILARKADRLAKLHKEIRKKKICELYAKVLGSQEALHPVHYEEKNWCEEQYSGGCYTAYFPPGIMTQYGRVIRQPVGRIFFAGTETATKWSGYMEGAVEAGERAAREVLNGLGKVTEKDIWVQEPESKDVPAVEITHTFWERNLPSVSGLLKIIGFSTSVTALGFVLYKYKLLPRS

Row | pIC50 [1] | pIC50 [2] | SMILES
1 | 4.10 | 5.07 | NCCCCCCNCC(N)=O
2 | 4.27 | 5.24 | CC(C)(C)OC(=O)NCCCCCCNCC(N)=O
